The values below come from ChEMBL document CHEMBL4825684, “Design, synthesis and biological evaluation of N-anthraniloyl tryptamine derivatives as pleiotropic molecules for the therapy of malignant glioma” (Eur J Med Chem, 2021).

Data set [1] addresses T1, Prostaglandin G/H synthase 2 (Homo sapiens, UniProt P35354).
T1 sequence (P35354 whole entry): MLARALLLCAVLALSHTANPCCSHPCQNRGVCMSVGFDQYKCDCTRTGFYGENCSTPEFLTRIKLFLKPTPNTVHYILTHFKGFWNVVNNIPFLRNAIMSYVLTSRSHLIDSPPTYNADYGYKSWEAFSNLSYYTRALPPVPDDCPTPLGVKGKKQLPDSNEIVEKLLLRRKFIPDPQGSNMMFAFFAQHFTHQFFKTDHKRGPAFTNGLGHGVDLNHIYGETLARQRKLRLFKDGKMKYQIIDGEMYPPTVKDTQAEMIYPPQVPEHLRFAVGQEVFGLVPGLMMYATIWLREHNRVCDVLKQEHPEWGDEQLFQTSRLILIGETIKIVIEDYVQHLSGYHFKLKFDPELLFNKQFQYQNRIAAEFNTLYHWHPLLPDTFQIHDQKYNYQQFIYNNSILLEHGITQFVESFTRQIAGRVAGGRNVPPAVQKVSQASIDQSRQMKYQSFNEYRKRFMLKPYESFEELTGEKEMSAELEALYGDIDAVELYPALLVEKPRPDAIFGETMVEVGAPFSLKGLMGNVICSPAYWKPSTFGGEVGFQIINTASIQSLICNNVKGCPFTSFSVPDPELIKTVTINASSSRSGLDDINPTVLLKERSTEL
Kind of data set: Inhibition of human COX2 assessed as fluorescence by microplate reader.

Another data set has as its system U-87 MG. In words: Antiproliferative activity against human U-87 MG cells assessed as growth inhibition incubated for 72 hrs by CCK-8 assay. The format is functional, cell-based, U-87MG ATCC.
For data set [2], the system named is C6. Kind of data set: Antiproliferative activity against rat C6 cells assessed as growth inhibition incubated for 72 hrs by CCK-8 assay. The format is functional, cell-based. Particulars: C6, 72 h. (In general: Formazan colour is commonly taken as a measure of viable cells.)
The next data set deals with U-251. In words: Antiproliferative activity against human U-251 cells assessed as growth inhibition incubated for 72 hrs by CCK-8 assay. Particulars: U-251, 72 h. It counts as functional, cell-based.
The next data set deals with BV-2. Kind of data set: Inhibition of MMP9 production in mouse BV-2 cells co-cultured with rat C6 glioma cells at 2 uM incubated for 24 hrs by Western blot analysis. The format is functional, cell-based. For orientation: Immunoblotting shows a protein as a band on a membrane.
Data set [3] has as its system C6. Kind of data set: Antitumor activity against rat C6 cells inoculated orthotopic Sprague-Dawley rat model assessed as reduction tumor volume at 50 mg/kg, ip twice a day treated 3 days after tumor cell injection measured for 13 days after tumor implantation. The format is functional, organism-based. Particulars: time 3.0 day.
For data set [4], the system named is C6. In words: Antitumor activity against rat C6 cells inoculated orthotopic Sprague-Dawley rat model assessed as increase in E-cadherin in tumor tissue at 50 mg/kg, ip twice a day treated 3 days after tumor cell injection measured for 13 days after tumor implantation by Western blot analysis. To be noted: time 3.0 day. It counts as functional, organism-based.

A short description of data set [5]: Toxicity in rat C6 cells inoculated orthotopic Sprague-Dawley rat model assessed as body weight change at 50 mg/kg, ip twice a day administered for 13 days of tumor implantation. The format is organism-based. To be noted: in vivo, 312 h, time 13 day.
Data set [6] relates to C6. Kind of data set: Antitumor activity against rat C6 cells inoculated orthotopic Sprague-Dawley rat model assessed as tumor growth inhibition at 50 mg/kg, ip twice a day treated 3 days after tumor cell injection measured for 13 days after tumor implantation. To be noted: 72 h, time 3 day, read-out: TGI. The format is functional.
Data set [7] deals with C6. Kind of data set: Antitumor activity against rat C6 cells inoculated orthotopic Sprague-Dawley rat model assessed as decrease in PGE2 in tumor tissue at 50 mg/kg, ip twice a day treated 3 days after tumor cell injection measured for 13 days after tumor implantation […]. The format is functional, organism-based. To be noted: time 3.0 day.
Data set [8] relates to C6. In words: Antitumor activity against rat C6 cells inoculated orthotopic Sprague-Dawley rat model assessed as decrease in p-STAT3 in tumor tissue at 50 mg/kg, ip twice a day treated 3 days after tumor cell injection measured for 13 days after tumor implantation by Western blot analysis. The format is functional, organism-based. To be noted: time 3.0 day.
Data set [9] deals with C6. Kind of data set: Antitumor activity against rat C6 cells inoculated orthotopic Sprague-Dawley rat model assessed as decrease in VEGF-A in tumor tissue at 50 mg/kg, ip twice a day treated 3 days after tumor cell injection measured for 13 days after tumor implantation by Western blot analysis. The format is functional, organism-based. To be noted: time 3.0 day.
Data set [10] relates to C6. In words: Antitumor activity against rat C6 cells inoculated orthotopic Sprague-Dawley rat model assessed as reduction tumor weight at 50 mg/kg, ip twice a day treated 3 days after tumor cell injection measured for 13 days after tumor implantation. Particulars: time 3.0 day. It counts as functional, organism-based.

The structures appear in SMILES notation. The source made the active and inactive calls. No cut-off for these calls is given here.

What is called IC50 is the point on the concentration scale where inhibition reaches its midpoint. As for `O=C(NCCc1c[nH]c2ccccc12)c1ccccc1Nc1cccc(F)c1`, the IC50 in data set [1] is greater than 40 µM; with U-87 MG, greater than 40 µM; in the data set on C6 [2], greater than 40 µM; in the data set on U-251, 20.4 µM.

As for `O=C(NCCc1c[nH]c2ccccc12)c1ccccc1Nc1cccc(Cl)c1`, the IC50 is greater than 40 µM in [1], greater than 40 µM with U-87 MG, greater than 40 µM with C6 [2] and 22.2 µM in the data set on U-251.

Turning to `Cc1ccc(-c2cc(C(F)(F)F)nn2-c2ccc(S(N)(=O)=O)cc2)cc1` [CELECOXIB], the IC50 in the data set on U-87 MG, in the data set with C6 [2] and with U-251 was greater than 40 µM in each case.

For `O=C(NCCc1c[nH]c2ccccc12)c1ccccc1Nc1ccccc1Cl`, the IC50 in [1] is greater than 40 µM; with U-87 MG, greater than 40 µM; with C6 [2] it was greater than 40 µM; in the data set on U-251, 14.8 µM.

On to `O=C(NCCc1c[nH]c2ccccc12)c1ccccc1Nc1cccnc1`, for which the IC50 in [1] is 23.7 µM; in the data set on U-87 MG, greater than 40 µM; in the data set with C6 [2], greater than 40 µM; in the data set with U-251, 25.2 µM.

With `Cc1cccc(Nc2ccccc2C(=O)NCCc2c[nH]c3ccccc23)c1`, the IC50 in data set [1] is 31 µM; in the data set with U-87 MG, 23.4 µM; with C6 [2] it was greater than 40 µM; in the data set with U-251, 13.3 µM.

As to `O=C(NCCc1c[nH]c2ccccc12)c1ccccc1Nc1ccccc1I`, the IC50 was greater than 40 µM in data set [1], greater than 40 µM with U-87 MG, greater than 40 µM in the data set with C6 [2] and 32.9 µM in the data set with U-251.

Turning to `Cc1ccc(Nc2ccccc2C(=O)NCCc2c[nH]c3ccccc23)cc1`, the IC50 was 5.96 µM in [1], 34.7 µM in the data set with U-87 MG, greater than 40 µM with C6 [2] and 13.7 µM with U-251.

Regarding `O=C(NCCc1c[nH]c2ccccc12)c1ccccc1Nc1cccc(Br)c1`, the IC50 was greater than 40 µM in data set [1], greater than 40 µM in the data set with U-87 MG, greater than 40 µM in the data set on C6 [2] and 21 µM with U-251.

With `O=C(NCCc1c[nH]c2ccccc12)c1ccccc1Nc1ccc(Cl)cc1`, the IC50 in [1] is 3.98 µM; in the data set with U-87 MG, greater than 40 µM; in the data set with C6 [2], greater than 40 µM; in the data set with U-251, 17.9 µM.

As to `COc1ccc2[nH]cc(CCNC(C)=O)c2c1` [MELATONIN], the IC50 with U-87 MG, in the data set with C6 [2] and in the data set on U-251 was greater than 40 µM each time.

Consider `Nc1ccccc1Nc1ccccc1C(=O)NCCc1c[nH]c2ccccc12`, for which the IC50 in [1] was 1.21 µM; in the data set on U-87 MG, greater than 40 µM; with C6 [2], greater than 40 µM; in the data set on U-251 it was greater than 40 µM. For the same compound, in the data set with BV-2, the inhibition entry is “Active”.

Take `Cc1ncccc1Nc1ccccc1C(=O)NCCc1c[nH]c2ccccc12`: the IC50 in data set [1] is 1.96 µM; in the data set with U-87 MG, greater than 40 µM; in the data set on C6 [2] it was greater than 40 µM; with U-251, 24.6 µM.

As for `O=C(NCCc1c[nH]c2ccccc12)c1ccccc1Nc1cccc2cccnc12`, the IC50 (in data set [1]; with U-87 MG; in the data set on C6 [2]; in the data set on U-251) was greater than 40 µM each time.

For `O=C(NCCc1c[nH]c2ccccc12)c1ccccc1Nc1ccccc1Br`, the IC50 in [1] was greater than 40 µM; in the data set with U-87 MG it was greater than 40 µM; with C6 [2], 17.9 µM; in the data set on U-251 it was 21.4 µM.

On to `Cc1ccccc1Nc1ccccc1C(=O)NCCc1c[nH]c2ccccc12`, for which the IC50 in [1] was greater than 40 µM; with U-87 MG, greater than 40 µM; in the data set on C6 [2], greater than 40 µM; in the data set on U-251, 30.5 µM.

Turning to `Cn1nnc2c(C(N)=O)ncn2c1=O` [TEMOZOLOMIDE], the outcome with C6 [3], in the data set on C6 [4], in the data set on C6 [7], in the data set with C6 [8], with C6 [9] and in the data set with C6 [10] was Active. The Activity result in data set [5] was “Toxic”. In addition, the inhibition in vivo at 50 mg/kg with C6 [6] was 54.8%.

With `CN(C)c1ccc(Nc2ccccc2C(=O)NCCc2c[nH]c3ccccc23)cc1`, the IC50 is 1.43 µM in [1], greater than 40 µM in the data set on U-87 MG, greater than 40 µM in the data set on C6 [2] and greater than 40 µM in the data set with U-251. For the same compound, the inhibition entry in the data set with BV-2 was “Active”.

As for `Cc1ccc(Nc2ccccc2C(=O)NCCc2c[nH]c3ccccc23)cn1`, the IC50 is 19.6 µM in [1], greater than 40 µM in the data set on U-87 MG, greater than 40 µM in the data set on C6 [2] and 17.9 µM in the data set on U-251.

With `O=C(NCCc1c[nH]c2ccccc12)c1ccccc1Nc1ccc2nccnc2c1`, the 50% inhibitory concentration (IC50) (in data set [1]; in the data set on U-87 MG; in the data set with C6 [2]; in the data set with U-251) was greater than 40 µM in each case.

Turning to `Cc1cncc(Nc2ccccc2C(=O)NCCc2c[nH]c3ccccc23)c1`, the IC50 was 17.6 µM in [1], greater than 40 µM with U-87 MG, greater than 40 µM with C6 [2] and 24.4 µM in the data set on U-251.

Regarding `O=C(NCCc1c[nH]c2ccccc12)c1ccccc1Nc1cccnc1Cl`, the IC50 in data set [1] is 2.96 µM; with U-87 MG, greater than 40 µM; in the data set with C6 [2] it was 24.1 µM; in the data set with U-251, 27.5 µM.

`COc1ccc(Nc2ccccc2C(=O)NCCc2c[nH]c3ccccc23)cc1`: the IC50 in data set [1] was 6.21 µM; in the data set with U-87 MG, greater than 40 µM; with C6 [2] it was greater than 40 µM; with U-251 it was 32.3 µM.

With `O=C(NCCc1c[nH]c2ccccc12)c1ccccc1Nc1cncc(Br)c1`, the IC50 was greater than 40 µM in data set [1], greater than 40 µM with U-87 MG, greater than 40 µM with C6 [2] and 25.1 µM in the data set on U-251.

As for `CCCCc1ccc(Nc2ccccc2C(=O)NCCc2c[nH]c3ccccc23)cc1`, the IC50 is greater than 40 µM in [1], greater than 40 µM in the data set with U-87 MG, greater than 33.7 µM in the data set on C6 [2] and 18.2 µM in the data set on U-251.

In the case of `O=C(NCCc1c[nH]c2ccccc12)c1ccccc1Nc1ccc(F)cc1`, the IC50 in [1] is 2.46 µM; in the data set on U-87 MG, greater than 40 µM; with C6 [2], 27.1 µM; in the data set with U-251 it was 12.8 µM.

On to `O=C(NCCc1c[nH]c2ccccc12)c1ccccc1Nc1ccc(Br)cc1`, for which the IC50 in data set [1] is 5.68 µM; in the data set with U-87 MG, greater than 40 µM; with C6 [2], greater than 40 µM; in the data set with U-251, greater than 40 µM.

For `O=C(NCCc1c[nH]c2ccccc12)c1ccccc1Nc1ccccc1F`, the half-maximal inhibitory concentration (IC50) is 4.23 µM in [1], greater than 40 µM in the data set on U-87 MG, greater than 40 µM with C6 [2] and 26.2 µM in the data set on U-251.

On to `O=C(NCCc1c[nH]c2ccccc12)c1ccccc1Nc1ccc(C(F)(F)F)cc1`, for which the IC50 is greater than 40 µM in [1], 35.7 µM with U-87 MG, greater than 40 µM with C6 [2] and 17.3 µM with U-251.
